≈ marks a conversion by molar mass, not a printed value.
What was measured:
Assay in all cases: Antifungal susceptibility, MIC by broth macro-dilution method
C. albicans (ATCC 24433) = type: cell-based, Candida albicans; details: Candida albicans, ATCC24433, RPMI 1640 medium with MOPS buffer, end points after 48 hours, NI till x = no inhibition up to x, read-out: MIC against fungi, C. albicans (ATCC 24433)
Procedure: (§1) In vitro evaluation of antifungal activity was performed by determining the minimum inhibitory concentration (MIC). Anti-fungal susceptibility testing of these anti-fungal compounds was done by broth dilution method using RPMI 1640 medium with MOPS buffer. Known anti-fungal agents like fluconazole and amphotericin-B were used as positive control. End points were determined after 48 hours visually and by using spectrophotometer wherever necessary. Different dilutions were, tried and various sets of experiments performed.

A. niger (ATCC 16404) = type: cell-based, Aspergillus niger; details: Aspergillus niger, ATCC16404, RPMI 1640 medium with MOPS buffer, end points after 48 hours, NI till x = no inhibition up to x, read-out: MIC against fungi, A. niger (ATCC 16404)
Procedure: as §1

[1] = tested on: F. proliferatum (ATCC 10052); type: cell-based, Fusarium proliferatum; details: Fusarium proliferatum, ATCC10052, RPMI 1640 medium with MOPS buffer, end points after 48 hours, NI till x = no inhibition up to x, read-out: MIC against fungi, F. proliferatum (ATCC 10052)
Procedure: as §1

Structure (SMILES) | MIC (C. albicans (ATCC 24433)) [µg/mL] | MIC (A. niger (ATCC 16404)) [µg/mL] | MIC [1] [µg/mL]
CCCCCCCCCc1cc2c(=O)n(CC(O)(Cn3cncn3)c3ccc(F)cc3F)cnc2s1 (stereo not drawn) [Compound 1-A17, 3-[2-(2,4-Difluorophenyl)-2-hydroxy-3-[1,2,4]-triazol-1-yl-propyl]-6-n-nonylthieno[2,3-d]pyrimidin-4(3H)-one] | 0.25 to 0.5 (≈ 0.485 to 0.97 µM) | > 4 | > 4
O=c1c2cc(CCCOCc3ccccc3)sc2ncn1CC(O)(Cn1cncn1)c1ccc(F)cc1F (stereo not drawn) [Compound 1-A02, 6-(3-Benzyloxypropyl)-3-[2-(2,4-difluorophenyl)-2-hydroxy-3-[1,2,4]-triazol-1-ylpropyl]-thieno[2,3-d]pyrimidin-4(3H)-one] | 0.06 to 0.12 (≈ 0.112 to 0.223 µM) | > 4 | > 4
CCCCCCc1cc2c(=O)n(CC(O)(Cn3cncn3)c3ccc(F)cc3F)cnc2s1 (stereo not drawn) [Compound 1-A03, 3-[2-(2,4-Difluorophenyl)-2-hydroxy-3-[1,2,4]-triazol-1-yl-propyl]-6-(n-hexyl)-thieno[2,3-d]pyrimidin-4(3H)-one] | 0.03 to 0.06 (≈ 0.0634 to 0.127 µM) | > 2 | > 2
CCCCCCc1sc2ncn(CC(O)(Cn3cncn3)c3ccc(F)cc3F)c(=O)c2c1C (stereo not drawn) [Compound 1-A10, 3-[2-(2,4-Difluorophenyl)-2-hydroxy-3-[1,2,4]-triazol-1-yl-propyl]-6-n-hexyl-5-methyl-thieno[2,3-d]pyrimidin-4(3H)-one] | 1 to 2 (≈ 2.05 to 4.1 µM) | > 2 | > 2
CC(=O)OCCCc1cc2c(=O)n(CC(O)(Cn3cncn3)c3ccc(F)cc3F)cnc2s1 (stereo not drawn) [Compound 1-A26, 3-[2-(2,4-Difluorophenyl)-2-hydroxy-3-[1,2,4]-triazol-1-yl-propyl]-6-(3-acetoxypropyl)-thieno[2,3-d]pyrimidin-4(3H)-one] | 1 to 2 (≈ 2.04 to 4.09 µM) | > 64 | > 64
Cc1c(Cc2ccccc2)sc2ncn(CC(O)(Cn3cncn3)c3ccc(F)cc3F)c(=O)c12 (stereo not drawn) [Compound 1-A15, 6-Benzyl-3-[2-(2,4-difluorophenyl)-2-hydroxy-3-[1,2,4]-triazol-1-yl-propyl]-5-methyl-thieno[2,3-d]pyrimidin-4(3H)-one] | 1 to 2 (≈ 2.03 to 4.05 µM) | > 4 | > 4
O=c1c2cc(CCCCO)sc2ncn1CC(O)(Cn1cncn1)c1ccc(F)cc1F (stereo not drawn) [Compound 1-A23, 3-[2-(2,4-Difluorophenyl)-2-hydroxy-3-[1,2,4]-triazol-1-yl-propyl]-6-(4-hydroxybutyl)-thieno[2,3-d]pyrimidin-4(3H)-one] | 1 to 2 (≈ 2.17 to 4.33 µM) | > 64 | > 64
O=c1c2cc(CCCO)sc2ncn1CC(O)(Cn1cncn1)c1ccc(F)cc1F (stereo not drawn) [Compound 1-A27, 3-[2-(2,4-Difluorophenyl)-2-hydroxy-3-[1,2,4]-triazol-1-yl-propyl]-6-(3-hydroxypropyl)-thieno[2,3-d]pyrimidin-4(3H)-one] | 2 to 4 (≈ 4.47 to 8.94 µM) | > 128 | > 128
